Source: patent US8802597B2, “Herbicidal pyrimidines” (E I du Pont de Nemours and Company, priority 2003, dated 2014)

How the values were obtained:
Assay in all cases: Test C postemergence
Format in all cases: in vivo
[1] = test system: green foxtail (Setaria viridis); conditions: for Plant response rating, Foxtail, Green: scale 0 to 100
Procedure, shortened: (§1)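 Test compounds, formulated in a non-phytotoxic solvent mix with surfactant, were applied to freshly planted seeds and, at the same time, to emerged plants at 1- to 4-leaf stage (2 to 18 cm). After 12 to 14 days in the greenhouse, response was scored visually versus controls, 0 = no effect, 100 = complete control.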

[2] = test system: canarygrass (Phalaris minor); conditions: for Plant response rating, Canarygrass: scale 0 to 100
Procedure, shortened: as §1

[3] = test system: windgrass (Apera spica-venti); conditions: for Plant response rating, Windgrass: scale 0 to 100
Procedure, shortened: as §1

[4] = test system: blackgrass (Alopecurus myosuroides); conditions: for Plant response rating, Blackgrass: scale 0 to 100
Procedure, shortened: as §1

wild oat (Avena fatua) = conditions: for Plant response rating, Oat, Wild: scale 0 to 100
Procedure, shortened: as §1

[5] = test system: Italian ryegrass (Lolium multiflorum); conditions: for Plant response rating, Ryegrass, Italian: scale 0 to 100
Procedure, shortened: as §1

[6] = test system: wheat (Triticum aestivum); conditions: for Plant response rating, Wheat: scale 0 to 100
Procedure, shortened: as §1

[7] = test system: winter barley (Hordeum vulgare); conditions: for Plant response rating, Barley: scale 0 to 100
Procedure, shortened: as §1

[8] = test system: downy brome (Bromus tectorum); conditions: for Plant response rating, Bromegrass, Downy: scale 0 to 100
Procedure, shortened: as §1

[9] = 62 g ai/ha, scale 0 to 100 (0 no effect, 100 complete control)
[10] = 125 g ai/ha, scale 0 to 100 (0 no effect, 100 complete control)

With `CCOC(=O)c1nc(C2CC2)nc(N)c1Cl` [Compound 4, ethyl 6-amino-5-chloro-2-cyclopropyl-4-pyrimidinecarboxylate] the “Plant response rating, Foxtail, Green” value ([1]; 250 g ai/ha) was 70, the “Plant response rating, Foxtail, Green” value ([1]; 500 g ai/ha) was 75 and the pest or weed control at 62 g/ha ([1]; Setaria viridis, post-emergence, 62 g ai/ha, scale 0 to 100 (0 no effect, 100 complete control), read-out: Foxtail, Green plant response rating) was 65%. The pest or weed control at 125 g/ha ([1]; Setaria viridis, post-emergence, 125 g ai/ha, scale 0 to 100 (0 no effect, 100 complete control), read-out: Foxtail, Green plant response rating) was 70%, the “Plant response rating, Canarygrass” value ([2]; 125 g ai/ha) was 45 and the “Plant response rating, Canarygrass” value ([2]; 250 g ai/ha) was 60. For the same compound, the “Plant response rating, Canarygrass” value ([2]; 500 g ai/ha) was 60, the pest or weed control at 62 g/ha ([2]; Phalaris minor, post-emergence, 62 g ai/ha, scale 0 to 100 (0 no effect, 100 complete control), read-out: Canarygrass plant response rating) was 35% and the “Plant response rating, Windgrass” value ([3]; 250 g ai/ha) was 70. For the same compound, the “Plant response rating, Windgrass” value ([3]; 500 g ai/ha) was 75, the pest or weed control at 62 g/ha ([3]; Apera spica-venti, post-emergence, 62 g ai/ha, scale 0 to 100 (0 no effect, 100 complete control), read-out: Windgrass plant response rating) was 60% and the pest or weed control at 125 g/ha ([3]; Apera spica-venti, post-emergence, 125 g ai/ha, scale 0 to 100 (0 no effect, 100 complete control), read-out: Windgrass plant response rating) was 65%. For the same compound, the “Plant response rating, Blackgrass” value ([4]; 125 g ai/ha) was 65, the “Plant response rating, Blackgrass” value ([4]; 250 g ai/ha) was 70 and the “Plant response rating, Blackgrass” value ([4]; 500 g ai/ha) was 70. For the same compound, the pest or weed control at 62 g/ha ([4]; Alopecurus myosuroides, post-emergence, 62 g ai/ha, scale 0 to 100 (0 no effect, 100 complete control), read-out: Blackgrass plant response rating) was 65%, the “Plant response rating, Oat, Wild” value (wild oat (Avena fatua); 250 g ai/ha) was 70 and the “Plant response rating, Oat, Wild” value (wild oat (Avena fatua); 500 g ai/ha) was 70. For the same compound, the pest or weed control at 62 g/ha (wild oat (Avena fatua); Avena fatua, post-emergence, 62 g ai/ha, scale 0 to 100 (0 no effect, 100 complete control), read-out: Oat, Wild plant response rating) was 60%, the pest or weed control at 125 g/ha (wild oat (Avena fatua); Avena fatua, post-emergence, 125 g ai/ha, scale 0 to 100 (0 no effect, 100 complete control), read-out: Oat, Wild plant response rating) was 65% and the “Plant response rating, Ryegrass, Italian” value ([5]; 250 g ai/ha) was 65. The “Plant response rating, Ryegrass, Italian” value ([5]; 500 g ai/ha) was 65, the pest or weed control at 62 g/ha ([5]; Lolium multiflorum, post-emergence, 62 g ai/ha, scale 0 to 100 (0 no effect, 100 complete control), read-out: Ryegrass, Italian plant response rating) was 45% and the pest or weed control at 125 g/ha ([5]; Lolium multiflorum, post-emergence, 125 g ai/ha, scale 0 to 100 (0 no effect, 100 complete control), read-out: Ryegrass, Italian plant response rating) was 60%. The “Plant response rating, Wheat” value ([6]; 250 g ai/ha) was 65, the “Plant response rating, Wheat” value ([6]; 500 g ai/ha) was 65 and the plant injury at 62 g/ha ([6]; Triticum aestivum, post-emergence, 62 g ai/ha, scale 0 to 100 (0 no effect, 100 complete control), read-out: Wheat plant response rating) was 50%. For the same compound, the plant injury at 125 g/ha ([6]; Triticum aestivum, post-emergence, 125 g ai/ha, scale 0 to 100 (0 no effect, 100 complete control), read-out: Wheat plant response rating) was 60%, the “Plant response rating, Barley” value ([7]; 125 g ai/ha) was 65 and the “Plant response rating, Barley” value ([7]; 250 g ai/ha) was 65. For the same compound, the “Plant response rating, Barley” value ([7]; 500 g ai/ha) was 65, the plant injury at 62 g/ha ([7]; Hordeum vulgare, post-emergence, 62 g ai/ha, scale 0 to 100 (0 no effect, 100 complete control), read-out: Barley plant response rating) was 30% and the “Plant response rating, Bromegrass, Downy” value ([8]; 125 g ai/ha) was 60. For the same compound, the “Plant response rating, Bromegrass, Downy” value ([8]; 250 g ai/ha) was 65, the “Plant response rating, Bromegrass, Downy” value ([8]; 500 g ai/ha) was 70 and the pest or weed control at 62 g/ha ([8]; Bromus tectorum, post-emergence, 62 g ai/ha, scale 0 to 100 (0 no effect, 100 complete control), read-out: Bromegrass, Downy plant response rating) was 45%.
With `COC(=O)c1nc(C2CC2)nc(N=CN(C)C)c1Br` [Compound 19] the “Plant response rating (scale of 0 to 100), Foxtail, Green” value ([1]; 16 g ai/ha) was 30, the “Plant response rating (scale of 0 to 100), Foxtail, Green” value ([1]; 31 g ai/ha) was 35 and the “Foxtail, Green plant response rating” value [1, 9] was 45. For the same compound, the “Foxtail, Green plant response rating” value [1, 10] was 60, the “Plant response rating (scale of 0 to 100), Canarygrass” value ([2]; 16 g ai/ha) was 45 and the “Plant response rating (scale of 0 to 100), Canarygrass” value ([2]; 31 g ai/ha) was 60. The “Canarygrass plant response rating” value [2, 9] was 60, the “Plant response rating, Canarygrass” value ([2]; 125 g ai/ha) was 65 and the “Plant response rating (scale of 0 to 100), Windgrass” value ([3]; 16 g ai/ha) was 40. The “Plant response rating (scale of 0 to 100), Windgrass” value ([3]; 31 g ai/ha) was 40, the “Windgrass plant response rating” value [3, 9] was 60 and the “Windgrass plant response rating” value [3, 10] was 60. For the same compound, the “Plant response rating (scale of 0 to 100), Blackgrass” value ([4]; 16 g ai/ha) was 55, the “Plant response rating (scale of 0 to 100), Blackgrass” value ([4]; 31 g ai/ha) was 60 and the “Blackgrass plant response rating” value [4, 9] was 65. For the same compound, the “Plant response rating, Blackgrass” value ([4]; 125 g ai/ha) was 65, the “Plant response rating (scale of 0 to 100), Oat, Wild” value (wild oat (Avena fatua); 16 g ai/ha) was 40 and the “Plant response rating (scale of 0 to 100), Oat, Wild” value (wild oat (Avena fatua); 31 g ai/ha) was 40. For the same compound, the “Oat, Wild plant response rating” value (wild oat (Avena fatua); [9]) was 60, the “Oat, Wild plant response rating” value (wild oat (Avena fatua); [10]) was 65 and the “Plant response rating (scale of 0 to 100), Ryegrass, Italian” value ([5]; 16 g ai/ha) was 65. For the same compound, the “Plant response rating (scale of 0 to 100), Ryegrass, Italian” value ([5]; 31 g ai/ha) was 65, the “Ryegrass, Italian plant response rating” value [5, 9] was 65 and the “Ryegrass, Italian plant response rating” value [5, 10] was 70. The “Plant response rating (scale of 0 to 100), Wheat” value ([6]; 16 g ai/ha) was 10, the “Plant response rating (scale of 0 to 100), Wheat” value ([6]; 31 g ai/ha) was 30 and the “Wheat plant response rating” value [6, 9] was 40. For the same compound, the “Wheat plant response rating” value [6, 10] was 45, the “Plant response rating (scale of 0 to 100), Barley” value ([7]; 16 g ai/ha) was 25 and the “Plant response rating (scale of 0 to 100), Barley” value ([7]; 31 g ai/ha) was 25. The “Barley plant response rating” value [7, 9] was 35, the “Plant response rating, Barley” value ([7]; 125 g ai/ha) was 45 and the “Plant response rating (scale of 0 to 100), Bromegrass, Downy” value ([8]; 16 g ai/ha) was 0. The “Plant response rating (scale of 0 to 100), Bromegrass, Downy” value ([8]; 31 g ai/ha) was 0, the “Bromegrass, Downy plant response rating” value [8, 9] was 50 and the “Plant response rating, Bromegrass, Downy” value ([8]; 125 g ai/ha) was 60.
`CCOC(=O)C(Cl)(Cl)c1nc(C2CC2)nc(N)c1Br` [Compound 34] was tested, and the “Plant response rating (scale of 0 to 100), Foxtail, Green” value ([1]; 31 g ai/ha) was 40, the “Foxtail, Green plant response rating” value [1, 9] was 40 and the “Foxtail, Green plant response rating” value [1, 10] was 45. The “Plant response rating, Foxtail, Green” value ([1]; 250 g ai/ha) was 45, the “Plant response rating (scale of 0 to 100), Canarygrass” value ([2]; 31 g ai/ha) was 20 and the “Canarygrass plant response rating” value [2, 9] was 30. The “Canarygrass plant response rating” value [2, 10] was 35, the “Plant response rating, Canarygrass” value ([2]; 250 g ai/ha) was 45 and the “Plant response rating (scale of 0 to 100), Windgrass” value ([3]; 31 g ai/ha) was 40. The “Windgrass plant response rating” value [3, 9] was 40, the “Windgrass plant response rating” value [3, 10] was 50 and the “Plant response rating, Windgrass” value ([3]; 250 g ai/ha) was 60. The “Plant response rating (scale of 0 to 100), Blackgrass” value ([4]; 31 g ai/ha) was 0, the “Blackgrass plant response rating” value [4, 9] was 35 and the “Blackgrass plant response rating” value [4, 10] was 35. For the same compound, the “Plant response rating, Blackgrass” value ([4]; 250 g ai/ha) was 45, the “Plant response rating (scale of 0 to 100), Oat, Wild” value (wild oat (Avena fatua); 31 g ai/ha) was 20 and the “Oat, Wild plant response rating” value (wild oat (Avena fatua); [9]) was 40. For the same compound, the “Oat, Wild plant response rating” value (wild oat (Avena fatua); [10]) was 45, the “Plant response rating, Oat, Wild” value (wild oat (Avena fatua); 250 g ai/ha) was 50 and the “Plant response rating (scale of 0 to 100), Ryegrass, Italian” value ([5]; 31 g ai/ha) was 40. For the same compound, the “Ryegrass, Italian plant response rating” value [5, 9] was 40, the “Ryegrass, Italian plant response rating” value [5, 10] was 45 and the “Plant response rating, Ryegrass, Italian” value ([5]; 250 g ai/ha) was 60. The “Plant response rating (scale of 0 to 100), Wheat” value ([6]; 31 g ai/ha) was 0, the “Wheat plant response rating” value [6, 9] was 20 and the “Wheat plant response rating” value [6, 10] was 30. For the same compound, the “Plant response rating, Wheat” value ([6]; 250 g ai/ha) was 35, the “Plant response rating (scale of 0 to 100), Barley” value ([7]; 31 g ai/ha) was 20 and the “Barley plant response rating” value [7, 9] was 20. The “Barley plant response rating” value [7, 10] was 30, the “Plant response rating, Barley” value ([7]; 250 g ai/ha) was 40 and the “Plant response rating (scale of 0 to 100), Bromegrass, Downy” value ([8]; 31 g ai/ha) was 0. For the same compound, the “Bromegrass, Downy plant response rating” value [8, 9] was 0, the “Bromegrass, Downy plant response rating” value [8, 10] was 30 and the “Plant response rating, Bromegrass, Downy” value ([8]; 250 g ai/ha) was 35.
